Assay results: EP1096022B1, “Immuno-stimulating polysaccharide substance from Phellinus spp. strain and use thereof” (KOREA INSTITUTE OF SCIENCE AND TECHNOLOGY, priority 1999, dated 2001)

What was measured:
[1] = tested on: B16F10 cutaneous cancer cells; assay: Viability of mice implanted intraperitoneally with B16F10 cells, co-administration with chemotherapeutics, 60 days; type: in vivo, mouse; settings: for Proportion (%): untreated = 100
Source text: (§1) A homogeneous plantation test system of B 16F 10 cutaneous cancer cell was utilized for the measurement of the anticancer activity upon co-administration of the polysaccharide substance and adriamycin. The cutaneous cancer cells were implanted in the peritoneal cavity of mice. Adriamycin was peritoneally administered to the mice for 12 days after tumor implantation while the polysaccharide substance was peritoneally administered from a week before the implantation to 12 days after the implantation. For 60 days, the viability of the mice was recorded everyday. Adriamycin was used at such low amounts as not to damage the mice.
The cutaneous cancer cells were implanted in the peritoneal cavity of mice. […] For 60 days, the viability of the mice was recorded everyday. Mitomycin C was used at such low amounts as not to damage the mice.
The cutaneous cancer cells were implanted in the peritoneal cavity of mice. […] For 60 days, the viability of the mice was recorded everyday. Cisplastin was used at such low amounts as not to damage the mice.
as §1, with “B16F10” for “B 16F 10”, “5-fluoro uracil, as in the above experiments.” for “adriamycin.”, “5-fluoro uracil” for “Adriamycin”

[2] = tested on: NCl-H23 lung cancer cells; assay: Human lung cancer cells implanted subcutaneously in nude mice, tumor size and weight; type: in vivo
Procedure: The activity of the polysaccharide substance against human cancer was assayed using NCl-H23, a lung cancer cell line. Nude mice were subcutaneously implanted with NCl-H23 lung cancer cells. The polysaccharide substance and adriamycin were peritoneally administered to the nude mice for 12 days after cancer cell implantation. […] Because the nude mice were devoid of T-cells, their immunological competency was generally attributed to the activity of natural killer cells or macrophage cells. Therefore, the immunological enhancement obtained when administering the polysaccharide substance was meditated through these two type cells.

[3] = tested on: B16F10 cutaneous cancer cells; assay: Lung metastasis after tail-vein implantation of B16F10 cells, spots counted on the 14th day; type: in vivo, C57BL/6 mice
Source text: In order to test the polysaccharide substance for the prevention of cancer metastasis, B16F10 cutaneous cancer cells were implanted in the tail veins of C57BL/6 mice. On the 14th day after implantation, the lungs were isolated from the mice to investigate whether or to what extent cancer metastasis occurred. Adriamycin was peritoneally administered to the mice for 12 days after tumor implantation while the polysaccharide substance was peritoneally administered from a week before the implantation to 12 days after the implantation. […]

[4] = tested on: NCl-H23 human lung cancer cells; assay: Direct cytotoxicity, sulforhodamin B method
[5] = tested on: B16F10 mouse cutaneous cancer cells; assay: Direct cytotoxicity, sulforhodamin B method
[6] = 0.3 µg/mL, 2nd day after treatment

O=c1[nH]cc(F)c(=O)[nH]1 [5-FU, 5-fluoro uracil]
Avg. Viability ([1]; 5-fluorouracil 1 mg/kg alone): 33.0 days | Nos. of viable mice on the 60th day ([1]; 5-fluorouracil 1 mg/kg alone): 0/10 | Avg. Viability ([1]; 5-fluorouracil 1 mg/kg alone, listed as 5-Fluorouracil): 34.2 days | Proportion (%) ([1]; 5-fluorouracil 1 mg/kg alone): 187.8% | Avg. Viability ([1]; 5-fluorouracil 3 mg/kg alone): 40.5 days | Nos. of viable mice on the 60th day ([1]; 5-fluorouracil 3 mg/kg alone): 2/10 | Avg. Viability ([1]; 5-fluorouracil 3 mg/kg alone, listed as 5-fluorouracil): 40.2 days | Proportion (%) ([1]; 5-fluorouracil 3 mg/kg alone): 222%

COc1cccc2c1C(=O)c1c(O)c3c(c(O)c1C2=O)C[C@@](O)(C(=O)CO)C[C@@H]3O[C@H]1C[C@H](N)[C@H](O)[C@H](C)O1 [Adriamycin]
Cell size ([2]; 14th day, 1mg/kg peritoneally for 12 days): 12 mm^3 | Cell size ([2]; 17th day, 1mg/kg): 27 mm^3 | Cell size ([2]; 18th day, 1mg/kg): 34 mm^3 | Cell size ([2]; 19th day, 1mg/kg): 33 mm^3 | Final Cancer Weight ([2]; 19th day, 1mg/kg): 95 | Nos. of Spots ([3]; adriamycin 1mg/kg alone): 197 | Nos. of Spots ([3]; adriamycin 3mg/kg alone): 172 | Avg. Viability ([1]; adriamycin 0.1 mg/kg alone): 35.4 days | Nos. of viable mice on the 60th day ([1]; adriamycin 0.1 mg/kg alone): 0/10 | Proportion (%) ([1]; adriamycin 0.1 mg/kg alone): 195.6% | Avg. Viability ([1]; adriamycin 0.3 mg/kg alone): 40.1 days | Nos. of viable mice on the 60th day ([1]; adriamycin 0.3 mg/kg alone): 2/10 | Proportion (%) ([1]; adriamycin 0.3 mg/kg alone): 240.9% | cell quantity (untreated = 100 %) [4, 6]: 100% | cell quantity (untreated = 100 %) ([4]; 1 µg/mL, 2nd day): 71% | cell quantity (untreated = 100 %) ([4]; 3 µg/mL, 2nd day): 39% | cell quantity (untreated = 100 %) ([4]; 10 µg/mL, 2nd day): 7% | cell quantity (untreated = 100 %) ([4]; 30 µg/mL, 2nd day): -1% | cytotoxicity to cancer cells ([4]; overall statement): potent cytotoxicity | cell quantity (untreated = 100 %) [5, 6]: 56% | cell quantity (untreated = 100 %) ([5]; 1 µg/mL, 2nd day): 29% | cell quantity (untreated = 100 %) ([5]; 3 µg/mL, 2nd day): 9% | cell quantity (untreated = 100 %) ([5]; 10 µg/mL, 2nd day): -10% | cell quantity (untreated = 100 %) ([5]; 30 µg/mL, 2nd day): -10% | cytotoxicity to cancer cells ([5]; overall statement): potent cytotoxicity

N.N.[Cl][Pt][Cl] [C.P, Cisplatin]
Avg. Viability ([1]; cisplatin 0.5 mg/kg alone): 33.0 days | Nos. of viable mice on the 60th day ([1]; cisplatin 0.5 mg/kg alone): 0/10 | Avg. Viability ([1]; cisplatin 0.5 mg/kg alone, listed as Cisplatin): 33 days | Proportion (%) ([1]; cisplatin 0.5 mg/kg alone): 182.3% | Avg. Viability ([1]; cisplatin 1.5 mg/kg alone): 40.5 days | Nos. of viable mice on the 60th day ([1]; cisplatin 1.5 mg/kg alone): 2/10 | Proportion (%) ([1]; cisplatin 1.5 mg/kg alone): 223.8%

CO[C@@]12[C@H](COC(N)=O)C3=C(C(=O)C(C)=C(N)C3=O)N1C[C@@H]1N[C@@H]12 [M.C, Mitomycin C]
Nos. of viable mice on the 60th day ([1]; mitomycin C 0.2 mg/kg alone): 0/10 | Avg. Viability ([1]; mitomycin C 0.6 mg/kg alone): 38.0 days | Nos. of viable mice on the 60th day ([1]; mitomycin C 0.6 mg/kg alone): 1/10
